Experimental data from patent US20060210528A1, “Therapy for tropical diseases” (Aspire Biotech, Inc., priority 2001, published 2006).

System: plantar warts
Experiment: Treatment of plantar warts on a patient's feet with an in situ polymeric film versus freezing
Type: in vivo, human
Experimental: The following examples illustrate how the methods of this invention could be used.
A patient presents to a dermatologist with two similar plantar warts on the soles of their left and right feet. The wart on the right foot is treated by freezing with liquid nitrogen.

`N#N` [liquid nitrogen] was tested, and the “pain on treated foot” value (plantar wart on sole of foot) was “makes walking on the foot painful for several days”, the “time until wart resolves” value (plantar wart on sole of foot, film re-applied every 3-4 days) was 3 weeks and the “return of wart after resolution” value (plantar wart, film treatment continued two weeks after resolution) was “has returned after two months”.
